Data taken from patent US9617239B2, “Phenoxy thiophene sulfonamides and their use as inhibitors of glucuronidase” (North Carolina Central University, priority 2010, dated 2017).

biological target: E. coli β-glucuronidase (Escherichia coli (strain K12), UniProt P05804); assay: β-Glucuronidase assay (4MUG hydrolysis, fluorescence); assay type: biochemical; settings: Table 1; compounds from 35,000 compound diversity set library; 50 pM enzyme, 125 uM 4MUG; read-out: IC50, β-Glucuronidase Inhibitory activity of phenoxythiophene sulfonamides

Structure (SMILES) | IC50 [µM]
CCCOc1ccc(Oc2sc([S+](=O)([O-])NCc3cccc4ccccc34)cc2Cl)cc1 [BRITE-355221] | 402
O=[S+]([O-])(NCc1cccc2ccccc12)c1cc(Cl)c(Oc2cccnc2)s1 [BRITE-355211] | 192
O=[S+]([O-])(NCc1cccc2ccccc12)c1ccc(Oc2ccc(OCc3ccccc3)cc2)s1 [BRITE-355169] | 153
O=[S+]([O-])(NCc1cccc2ccccc12)c1cc(Cl)c(Oc2ccc3c(c2)CCCC3)s1 [BRITE-355244] | 123
COc1cccc(OC)c1Oc1sc([S+](=O)([O-])NCc2cccc3ccccc23)cc1Cl [BRITE-355201] | 202
O=[S+]([O-])(NCc1cccc2ccccc12)c1cc(Cl)c(Oc2ccc3c(c2)OCO3)s1 [BRITE-355233] | 376
COc1ccc2ccc(Oc3ccc([S+](=O)([O-])NCc4cccc5ccccc45)s3)cc2c1 [BRITE-354458] | 175
O=[S+]([O-])(NCc1cccc2ccccc12)c1cc(Cl)c(Oc2ccccc2)s1 [BRITE-355253] | 444
O=[S+]([O-])(NCc1cccc2ccccc12)c1ccc(Oc2ccc3c(c2)CCCC3)s1 [BRITE-355030] | 149
Cc1cc(Oc2sc([S+](=O)([O-])NCc3cccc4ccccc34)cc2Cl)cc(C(C)C)c1 [BRITE-355214] | 135
O=[S+]([O-])(NCc1cccc2ccccc12)c1cc(Cl)c(Oc2cccc(-c3ccccc3)c2)s1 [BRITE-355180] | 102
Cc1cc(C)cc(Oc2sc([S+](=O)([O-])NCc3cccc4ccccc34)cc2Cl)c1 [BRITE-355234] | 152

test system: rats; assay: not given; settings: background, reference 14; cited from earlier work

Structure (SMILES) | reversal of SN-38-related epithelial cell death and severe diarrhea from CPT-11
O=C1OC(C(O)C(=O)O)C(O)C1O (stereo not shown) [saccharic acid 1,4-lactone] | partially reversed
